Consider 22 molecules from US12466781B2, “Thyromimetics” (Autobahn Therapeutics, Inc., priority 2019, dated 2025).

One test deals with T1, TRβ (Homo sapiens, UniProt P10828).
T1 construct: expressed in transfected cells; host or cells: HEK293
T1 sequence (P10828 217-461 limits assumed): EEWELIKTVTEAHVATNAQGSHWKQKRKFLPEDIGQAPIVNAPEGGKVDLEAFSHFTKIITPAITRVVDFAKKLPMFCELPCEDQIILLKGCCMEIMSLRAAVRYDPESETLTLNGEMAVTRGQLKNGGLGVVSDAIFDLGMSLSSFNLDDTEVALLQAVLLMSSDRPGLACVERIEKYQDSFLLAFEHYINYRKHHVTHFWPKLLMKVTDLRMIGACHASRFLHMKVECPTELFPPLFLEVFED
Put plainly: Thyroid-hormone reporter-gene assay (TRβ-Gal4 hybrid, luciferase, HEK293). Format: cell-based. The following applies: Table 2; for T3-SI (selectivity index): calculated as EC50 (TRα)/EC50 (TRβ); for EC50: reporter cells, 24 hr incubation, read-out: TRβ (EC50). The protocol:
(§1) Compounds were tested for thyroid-hormone receptor activity using TR reporter-gene assays. Reporter cells used in the assays express a TR-receptor hybrid (either TRα or TRβ) in which the native N-terminal DNA binding domain (DBD) has been replaced with that of the yeast Gal4 DBD. The reporter gene, firefly luciferase, is functionally linked to the Gal4 upstream activation sequence (UAS). Both cell lines were derived from human embryonic kidney (HEK293).
(§2) Step 1: A suspension of reporter cells was prepared in cell recovery medium containing 10% charcoal-stripped FBS, and dispensed into assay plates. The plates were pre-incubated for 6 hours in a cell culture incubator (37° C./5% CO2/85% humidity).
(§3) These intermediate stocks were subsequently diluted directly into compound screening medium containing 10% charcoal-stripped FBS to generate “2×-concentration” treatment media (containing 0.2, 0.4 or 0.8% DMSO).
(§4) Step 3: At the end of the pre-incubation period, culture media were discarded from the assay plates, and all wells received 100 μl of compound screening medium. 100 μl of each of the previously prepared “2×-concentration” treatment media were dispensed into duplicate assay wells, thereby achieving the desired final treatment concentrations. The final concentration of DMSO in all assay wells was 0.1, 0.2 or 0.4%. Assay plates were incubated for 24 hr in a cell culture incubator (37° C./5% CO2/85% humidity).
(§5) Step 4: At the 24 h assay endpoint, treatment media were discarded and 100 μl/well of luciferase detection reagent was added. Relative luminometer units (RLUs) were quantified from each assay well.

The target of another test is T2, TRα (Homo sapiens, UniProt P10827).
T2 construct: expressed in transfected cells; host or cells: HEK293
T2 sequence (P10827 163-410 isoform P10827-2 limits assumed): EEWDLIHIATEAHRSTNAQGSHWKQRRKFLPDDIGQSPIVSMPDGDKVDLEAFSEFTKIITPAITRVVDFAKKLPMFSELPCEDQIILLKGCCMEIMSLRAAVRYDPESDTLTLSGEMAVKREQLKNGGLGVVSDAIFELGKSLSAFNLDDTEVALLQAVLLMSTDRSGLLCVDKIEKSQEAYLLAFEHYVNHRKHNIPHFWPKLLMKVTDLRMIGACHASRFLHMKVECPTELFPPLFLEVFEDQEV
Put plainly: Thyroid-hormone reporter-gene assay (TRα-Gal4 hybrid, luciferase, HEK293). Format: cell-based. The following applies: reporter cells, 24 hr incubation; Table 2; read-out: TRα (EC50). The protocol:
as §1, §2, §3, §4, §5

Some results are limits rather than exact numbers.

The EC50 is the concentration that produces a half-maximal response. `Cc1cc(OCC(=O)O)cc(C)c1Cc1ccc(O)c(C(C)C)c1F` [Compound 2, 2-(4-(2-fluoro-4-hydroxy-3-isopropylbenzyl)-3,5-dimethylphenoxy)acetic acid]: at TRβ, the “T3-SI (selectivity index)” value is “++ (3×<T3-SI≤30×)” and the EC50 lay within 100 to 1000 nM. At TRα, the EC50 is greater than 1000 nM.

For `Cc1cc(OCC(=O)O)cc(C)c1Cc1ccc(O)c(-c2cccc(OC(F)F)c2)c1F` [Compound 3, 2-(4-((3′-(difluoromethoxy)-2-fluoro-6-hydroxy-[1,1′-biphenyl]-3-yl)methyl)-3,5-dimethylphenoxy)acetic acid], on TRβ, the “T3-SI (selectivity index)” value was “++ (3×<T3-SI≤30×)” and the EC50 was in the range of 100 to 1000 nM. For the same molecule, at TRα, the EC50 was greater than 1000 nM.

On to `Cc1cc(OCC(=O)O)cc(C)c1Cc1ccc(O)c(C(C)c2ccc(F)cc2)c1F` (stereo not drawn) [Compound 6, 2-(4-(2-fluoro-3-(1-(4-fluorophenyl)ethyl)-4-hydroxybenzyl)-3,5-dimethylphenoxy)acetic acid], for which the “T3-SI (selectivity index)” value on TRβ was “++ (3×<T3-SI≤30×)”. For the same molecule, the EC50 at TRβ was less than 10 nM; on TRα, 10 to 100 nM.

For the molecule `CCc1cc(OCC(=O)O)cc(C)c1Cc1ccc(O)c(C(C)C)c1F` [Compound 9, 2-(3-ethyl-4-(2-fluoro-4-hydroxy-3-isopropylbenzyl)-5-methylphenoxy)acetic acid], on TRβ, the “T3-SI (selectivity index)” value is “++ (3×<T3-SI≤30×)” and the EC50 is 10 to 100 nM. Moreover, the EC50 at TRα is 10 to 100 nM.

As for `C=C(C)c1cc(OCC(=O)O)cc(C)c1Cc1ccc(O)c(C(C)C)c1F` [Compound 12, 2-(4-(2-fluoro-4-hydroxy-3-isopropylbenzyl)-3-methyl-5-(prop-1-en-2-yl)phenoxy)acetic acid], the “T3-SI (selectivity index)” value on TRβ was “++ (3×<T3-SI≤30×)”. In addition, the EC50 at TRβ is less than 10 nM; on TRα, 10 to 100 nM.

Regarding `Cc1cc(OCC(=O)O)cc(C(C)C)c1Cc1ccc(O)c(C(C)C)c1F` [Compound 13, 2-(4-(2-fluoro-4-hydroxy-3-isopropylbenzyl)-3-isopropyl-5-methylphenoxy)acetic acid], at TRβ, the “T3-SI (selectivity index)” value is “++ (3×<T3-SI≤30×)” and the EC50 was less than 10 nM. Further, the EC50 at TRα is less than 10 nM.

Turning to `CON(C)C(=O)COc1cc(Cl)c(Cc2ccc(O)c(C(C)C)c2F)c(Cl)c1` [Compound 22, 2-(3,5-dichloro-4-(2-fluoro-4-hydroxy-3-isopropylbenzyl)phenoxy)-N-methoxy-N-methylacetamide], at TRβ, the “T3-SI (selectivity index)” value was “++ (3×<T3-SI≤30×)” and the EC50 was 10 to 100 nM. In addition, the EC50 at TRα lay in the range of 10 to 100 nM.

Consider `O=C(O)COc1cc(Cl)c(Cc2ccc(O)c(-c3cccc(OC(F)F)c3)c2F)c(Cl)c1` [Compound 24, 2-(3,5-dichloro-4-((3′-(difluoromethoxy)-2-fluoro-6-hydroxy-[1,1′-biphenyl]-3-VI)methyl)phenoxy)acetic acid], for which, on TRβ, the “T3-SI (selectivity index)” value was “++ (3×<T3-SI≤30×)” and the EC50 lay in the range of 10 to 100 nM. For the same molecule, the EC50 on TRα fell in the range of 100 to 1000 nM.

Regarding `O=C(O)COc1cc(Cl)c(Cc2ccc(O)c(-c3cc(C(F)(F)F)ccc3F)c2F)c(Cl)c1` [Compound 25, 2-(3,5-dichloro-4-((2,2′-difluoro-6-hydroxy-5′-(trifluoromethyl)-[1,1′-biphenyl]-3-yl)methyl)phenoxy)acetic acid], at TRβ, the “T3-SI (selectivity index)” value was “++ (3×<T3-SI≤30×)” and the EC50 was less than 10 nM. Moreover, the EC50 on TRα lay within 10 to 100 nM.

Turning to `O=C(O)COc1cc(Cl)c(Cc2ccc(O)c(-c3cc(OC(F)F)ccc3F)c2F)c(Cl)c1` [Compound 26, 2-(3,5-dichloro-4-((5′-(difluoromethoxy)-2,2′-difluoro-6-hydroxy-[1,1′-biphenyl]-3-VI)methyl)phenoxy)acetic acid], at TRβ, the “T3-SI (selectivity index)” value was “++ (3×<T3-SI≤30×)” and the EC50 is 10 to 100 nM. Also, on TRα, the EC50 was 100 to 1000 nM.

With `O=C(O)COc1cc(Cl)c(Cc2ccc(O)c(Cc3ccc(F)cc3)c2F)c(Cl)c1` [Compound 28, 2-(3,5-dichloro-4-(2-fluoro-3-(4-fluorobenzyl)-4-hydroxybenzyl)phenoxy)acetic acid], the “T3-SI (selectivity index)” value on TRβ is “++ (3×<T3-SI≤30×)”. For the same molecule, the EC50 at TRβ and at TRα was 10 to 100 nM throughout.

Consider `CC(c1ccc(F)cc1)c1c(O)ccc(Cc2c(Cl)cc(OCC(=O)O)cc2Cl)c1F` (stereo not drawn) [Compound 30, 2-(3,5-dichloro-4-(2-fluoro-3-(1-(4-fluorophenyl)ethyl)-4-hydroxybenzyl)phenoxy)acetic acid], for which, at TRβ, the “T3-SI (selectivity index)” value is “++ (3×<T3-SI≤30×)” and the EC50 is less than 10 nM. Further, the EC50 on TRα was in the range of 10 to 100 nM.

Consider `CCC(c1ccc(F)cc1)c1c(O)ccc(Cc2c(Cl)cc(OCC(=O)O)cc2Cl)c1F` (stereo not drawn) [Compound 32, 2-(3,5-dichloro-4-(2-fluoro-3-(1-(4-fluorophenyl)propyl)-4-hydroxybenzyl)phenoxy)acetic acid], for which the “T3-SI (selectivity index)” value at TRβ is “++ (3×<T3-SI≤30×)”. Moreover, the EC50 on TRβ lay within 10 to 100 nM; on TRα, 100 to 1000 nM.

`CCCC(c1ccc(F)cc1)c1c(O)ccc(Cc2c(Cl)cc(OCC(=O)O)cc2Cl)c1F` (stereo not drawn) [Compound 34, 2-(3,5-dichloro-4-(2-fluoro-3-(1-(4-fluorophenyl)butyl)-4-hydroxybenzyl)phenoxy)acetic acid]: at TRβ, the “T3-SI (selectivity index)” value was “++ (3×<T3-SI≤30×)”. Moreover, the EC50 on TRβ is 100 to 1000 nM; at TRα, greater than 1000 nM.

`Cc1cc(OCC(=O)O)cc(Cl)c1Cc1ccc(O)c(C(C)C)c1F` [Compound 36, 2-(3-chloro-4-(2-fluoro-4-hydroxy-3-isopropylbenzyl)-5-methylphenoxy)acetic acid]: on TRβ, the “T3-SI (selectivity index)” value is “++ (3×<T3-SI≤30×)” and the EC50 lay in the range of 10 to 100 nM. Besides, the EC50 at TRα was in the range of 10 to 100 nM.

With `CC(C)c1c(O)ccc(Cc2c(Cl)cc(OCC(=O)O)cc2Br)c1F` [Compound 40, 2-(3-bromo-5-chloro-4-(2-fluoro-4-hydroxy-3-isopropylbenzyl)phenoxy)acetic acid], the “T3-SI (selectivity index)” value on TRβ was “++ (3×<T3-SI≤30×)”. Besides, the EC50 at TRβ and at TRα was less than 10 nM each time.

With `CCc1cc(OCC(=O)O)cc(Cl)c1Cc1ccc(O)c(C(C)C)c1F` [Compound 43, 2-(3-chloro-5-ethyl-4-(2-fluoro-4-hydroxy-3-isopropylbenzyl)phenoxy)acetic acid], on TRβ, the “T3-SI (selectivity index)” value is “++ (3×<T3-SI≤30×)” and the EC50 is 10 to 100 nM. Moreover, the EC50 at TRα fell in the range of 10 to 100 nM.

With `C=C(C)c1cc(OCC(=O)O)cc(Cl)c1Cc1ccc(O)c(C(C)C)c1F` [Compound 46, 2-(3-chloro-4-(2-fluoro-4-hydroxy-3-isopropylbenzyl)-5-(prop-1-en-2-yl)phenoxy)acetic acid], on TRβ, the “T3-SI (selectivity index)” value was “++ (3×<T3-SI≤30×)” and the EC50 is less than 10 nM. Further, the EC50 on TRα fell in the range of 10 to 100 nM.

With `CC(C)c1cc(OCC(=O)O)cc(Cl)c1Cc1ccc(O)c(C(C)C)c1F` [Compound 47, 2-(3-chloro-4-(2-fluoro-4-hydroxy-3-isopropylbenzyl)-5-isopropylphenoxy)acetic acid], on TRβ, the “T3-SI (selectivity index)” value was “++ (3×<T3-SI≤30×)” and the EC50 is less than 10 nM. Besides, the EC50 on TRα is less than 10 nM.

Turning to `CC(C)c1c(O)ccc(Cc2c(Cl)cc(OCC(=O)O)cc2Cl)c1Cl` [Compound 49, 2-(3,5-dichloro-4-(2-chloro-4-hydroxy-3-isopropylbenzyl)phenoxy)acetic acid], on TRβ, the “T3-SI (selectivity index)” value was “++ (3×<T3-SI≤30×)” and the EC50 was in the range of 10 to 100 nM. Further, the EC50 on TRα lay in the range of 100 to 1000 nM.

Take `COc1c(Cc2c(Cl)cc(OCC(=O)O)cc2Cl)ccc(O)c1C(C)C` [Compound 54, 2-(3,5-dichloro-4-(4-hydroxy-3-isopropyl-2-methoxybenzyl)phenoxy)acetic acid]: at TRβ, the “T3-SI (selectivity index)” value is “++ (3×<T3-SI≤30×)” and the EC50 lay within 100 to 1000 nM. The EC50 on TRα was greater than 1000 nM.

In the case of `Cc1cc(OCC(=O)O)c(F)c(C)c1Cc1ccc(O)c(C(C)C)c1` [Compound 58, 2-(2-fluoro-4-(4-hydroxy-3-isopropylbenzyl)-3,5-dimethylphenoxy)acetic acid], on TRβ, the “T3-SI (selectivity index)” value is “+++ (T3-SI>30×)” and the EC50 lay in the range of 10 to 100 nM. Also, the EC50 at TRα lay in the range of 100 to 1000 nM.
